Reference: US20110160147A1, “NOVEL DUAL TARGETING A[…]” (priority 2008, published 2011)
Where two headings read alike, the source gives them in different places.

Tests used:
αvβ3 receptor = αvβ3 receptor (Homo sapiens, UniProt P05106+P06756); assay: Solid-phase binding assay, inhibition of [125I]Echistatin binding to αvβ3 receptor
Description: (§1) The receptor binding assays were performed as described (Orlando R. A., et al., J. Biol. Chem. 1991, 266, 19543). αvβ3 and αvβ5 were diluted to 500 ng/ml and 1 μg/ml, respectively, in coating buffer (20 mM Tris, pH 7.4, 150 mM NaCl, 2 mM CaCl2, 1 mM MgCl2, 1 mM MnCl2) and an aliquot of 100 μL was added to a 96-well microtiter plate and incubated overnight at 4° C. The plate was washed once with blocking/binding buffer (50 mM Tris, pH 7.4, 100 mM NaCl, 2 mM CaCl2, 1 mM MgCl2, 1 mM MnCl2, 1% bovine serum albumin), and then was incubated for additional 2 h at RT The plate was rinsed twice with the same buffer and incubated for 3 h at RT with radiolabeled ligand [^125I]Echistatin (Amersham Pharmacia Biotech) 0.05 nM (0.1 nM for αv β5) in the presence of competing inhibitors. After the incubation, the wells were washed and radioactivity was determined with a gamma-counter (Packard). Non-specific binding of ligand was determined with molar excess (200 nM) of cold echistatin.
(§2) The IC50 values reported in Tables 1 and 2 were calculated as the concentrations of compounds required for 50% inhibition of echistatin binding and were estimated by the Prism GraphPad program. The Ki of the competing ligands were calculated according to the Cheng-Prusoff equation (Cheng Y. C., et al., Biochem. Pharmacol., 1973, 22, 3099). Values are the mean±log standard error of triplicate determinations from two independent experiments.

[1] = test system: A2780 ovarian carcinoma cells; assay: Cytotoxicity, sulphorodamine B test (A2780); format: cell-based, human
Description: (§3) To evaluate the effect of the compound on survival cells, the sulphorodamine B test was used. To measure the effects of the compounds on cell growth, PC3 human prostate carcinoma and A2780 human ovarian carcinoma cells were used. A2780 and PC3 tumour cells were grown RPMI 1640 containing 10% fetal bovine serum (GIBCO).
(§4) Tumour cells were seeded in 96-well tissue culture plates at approximately 10% confluence and were allowed to attach and recover for at least 24 h. Varying concentrations of the drugs were then added to each well to calculate their IC50 value (the concentration which inhibits the 50% of cell survival). The plates were incubated at 37° C. for 72 h. At the end of the treatment, the plates were washed by removal of the supernatant and addition of PBS 3 times. 200 μl PBS and 50 μl of cold 80% trichloroacetic acid (TCA) were added. The plates were incubated on ice for at least 1 h. TCA was removed and the plates were washed 3 times by immersion in distilled-water and dried on paper and at 40° C. for 5 min. Then 200 μl of 0.4% sulphorodamine B in 1% acetic acid were added. The plates were incubated at RT for further 30 min. Sulphorodamine B was removed, the plates were washed by immersion in 1% acetic acid 3 times, then they were dried on paper and at 40° C. for 5 min. Then 200 μl Tris 10 mM were added, the plates were kept under stirring for 20 min. The cell survival was determined by means of optical density using a Multiskan spectrofluorimeter at 540 nm. The amount of cells killed was calculated as the percentage decrease in sulphorodamine B binding compared with control cultures.
(§5) The IC50 values were calculated with the “ALLFIT” program.

[2] = test system: A2780 ovarian carcinoma cells; format: cell-based, human
Description: (§6) A2780 human ovarian carcinoma and PC3 prostate carcinoma cells were grown in medium culture RPMI 1640 containing 10% fetal bovine serum and 50 μg/ml gentamycin sulfate. Cells were maintained in a 37° C. incubator with saturated humidity and an atmosphere of 95% air and 5% CO2. A2780 tumour cell line expresses high levels of αvβ5 integrin, and PC3 low levels of both integrins.
(§7) In 96-well tissue culture plates, 50 μl/well of a solution of vitronectin (5 μg/ml) were added for 2 h at room temperature. The solutions were removed upsetting the plates. 50 μl/well of a solution 1% BSA were added for 1 h at RT. The plates were washed by addition of 100 μl/well of medium culture RPMI 1640 without fetal calf serum (FCS). The washing was repeated twice. The molecules were added at different concentrations in the range between 0.039 μM and 20 μM. The solutions were prepared by dilution 1:2 in medium culture without FCS. Tumour cells in the flasks were washed in saline solution before to be detached by scraper, by the addition of 5 ml of medium culture without FCS and 1% BSA. Tumour cells were counted after resuspension and added at an appropriate cellular density (40000-50000 cells/well). The plates were incubated for 1 h at 37° C. in humidified incubator with 5% CO2. Then, the solutions were removed upsetting the plates and washed once with 200 μl/well of PBS with Ca^2+ e Mg^2+. Tumour cells were fixed with 100 μl of a solution 4% paraformaldehyde in 0.2 M Sorensen phosphate buffer pH 7.2-7.4 for 10 min at RT The plates were upset and 100 μl of 1% Toluidine Blu solution were added for 10 min at RT The plates were washed twice by immersion in bi-distilled water and then dried at 60° C. in thermostat incubator (Kottermann). 100 μl/well of 1% SDS were added. The plates were kept under stirring for 20 min at RT and were then evaluated by Victor 1420 multilabel counter (Wallac) at 600 nm.
(§8) The IC50 value as parameter to measure the inhibiting effect of the molecules on tumour cell adhesion to vitronectin was evaluated using “ALLFIT” computer program.

[3] = test system: PC3 prostate carcinoma cells; format: cell-based, human
Description: as §6, §7, §8

αvβ5 receptors = αvβ5 receptors (Homo sapiens, UniProt P06756+P18084); assay: Solid-phase binding assay, inhibition of [125I]Echistatin binding to αvβ5 receptors
Description: as §1, §2

[4] = test system: PC3 prostate carcinoma cells; assay: Cytotoxicity, sulphorodamine B test (PC3); format: cell-based, human
Description: as §3, §4, §5

[5] = Stability of the linker-containing conjugate in various assays; settings: various assays conducted
Source text: A number of linker-containing peptides as substrates of Cathepsin B have already been described, for example, Phe-Lys, Val-Cit (Dubowchick G. M., et al, Bioconjugate Chem., 2002, 13, 4, 855); Gly-Phe-Leu-Gly (Rejmanova P., et al, Biomaterials, 1985, 6, 1, 45); D-Ala-Phe-Lys (de Groot F. M. H., et al., Mol. Cancer. Ther., 2002, 1, 901). Some of these peptides have been successfully applied when attached to antibodies, which, due to their bulkiness, can shield them from plasma peptidases. However, when we experimented these peptide sequences applied to conjugates containing small ligands, as in the case of oligopeptides, they were immediately cleaved releasing the cytotoxic agent into the circulation, contrary to what described by other authors. […] The above cited paper from Dubowchick deals with cathepsin B-labile dipeptide ligands. The same authors also published four years before another study about the influence of the amino acid at position P2 when Cit amino acid was at P1 position, concluding that the best amino acid in such a position was Val because of hydrophobic interactions within the binding site of cathepsin B (Dubowchick G. M., et al, Bioorg. Med. Chem., 1998, 8, 3341), meanwhile the analogue containing Ala instead of Val contributed to slower noticeably the release of doxorubicin, which was clearly contrary to the objective of the study.

[6] = αvβ3, Cheng-Prusoff equation, read-out: Ki
[7] = αvβ3, [125I]Echistatin 0.05 nM, read-out: IC50 ± log SE, inhibition of [125I]Echistatin binding (converted)
[8] = αvβ5, Cheng-Prusoff equation, read-out: Ki
[9] = αvβ5, [125I]Echistatin 0.1 nM, read-out: IC50 ± log SE, inhibition of [125I]Echistatin binding (converted)
[10] = A2780, 72 h of treatment, read-out: IC50 ± SD, cytotoxicity
[11] = A2780, 1 h of treatment, read-out: IC50 ± SD, antiadhesive effect to vitronectin
[12] = PC3, 1 h of treatment, read-out: IC50 ± SD, antiadhesive effect to vitronectin
[13] = PC3, 72 h of treatment, read-out: IC50 ± SD, cytotoxicity

αvβ5 receptors, sequence (P06756 31-889 limits assumed): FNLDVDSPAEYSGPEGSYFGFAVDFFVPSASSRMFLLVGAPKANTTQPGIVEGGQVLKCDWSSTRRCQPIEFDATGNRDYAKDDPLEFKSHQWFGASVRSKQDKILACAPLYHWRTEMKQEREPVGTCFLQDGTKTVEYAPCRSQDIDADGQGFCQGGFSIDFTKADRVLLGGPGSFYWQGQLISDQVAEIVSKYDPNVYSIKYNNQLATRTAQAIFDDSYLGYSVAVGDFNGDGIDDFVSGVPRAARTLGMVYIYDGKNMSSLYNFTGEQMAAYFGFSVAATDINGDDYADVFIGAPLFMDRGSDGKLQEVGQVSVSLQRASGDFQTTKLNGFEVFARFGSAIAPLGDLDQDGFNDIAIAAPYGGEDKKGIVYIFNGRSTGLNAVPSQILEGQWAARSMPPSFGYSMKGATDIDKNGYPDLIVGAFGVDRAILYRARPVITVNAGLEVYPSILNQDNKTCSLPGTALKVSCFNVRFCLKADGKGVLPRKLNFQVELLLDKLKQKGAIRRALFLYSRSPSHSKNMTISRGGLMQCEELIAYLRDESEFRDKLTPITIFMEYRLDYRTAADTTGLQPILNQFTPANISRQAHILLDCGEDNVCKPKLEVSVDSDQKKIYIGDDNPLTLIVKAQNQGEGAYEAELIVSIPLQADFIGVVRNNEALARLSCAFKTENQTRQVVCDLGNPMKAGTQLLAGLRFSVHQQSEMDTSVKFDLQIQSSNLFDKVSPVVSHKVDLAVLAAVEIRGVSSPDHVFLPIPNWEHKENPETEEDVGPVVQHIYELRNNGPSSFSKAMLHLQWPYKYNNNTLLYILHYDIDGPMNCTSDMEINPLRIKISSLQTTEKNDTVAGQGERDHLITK
αvβ5 receptors, sequence (P06756 891-1048 partner limits assumed): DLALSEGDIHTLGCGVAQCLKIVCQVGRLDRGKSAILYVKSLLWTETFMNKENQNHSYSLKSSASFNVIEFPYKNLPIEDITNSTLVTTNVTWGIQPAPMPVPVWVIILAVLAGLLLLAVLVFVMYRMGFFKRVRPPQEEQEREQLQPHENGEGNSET
αvβ5 receptors, sequence (P18084 24-799): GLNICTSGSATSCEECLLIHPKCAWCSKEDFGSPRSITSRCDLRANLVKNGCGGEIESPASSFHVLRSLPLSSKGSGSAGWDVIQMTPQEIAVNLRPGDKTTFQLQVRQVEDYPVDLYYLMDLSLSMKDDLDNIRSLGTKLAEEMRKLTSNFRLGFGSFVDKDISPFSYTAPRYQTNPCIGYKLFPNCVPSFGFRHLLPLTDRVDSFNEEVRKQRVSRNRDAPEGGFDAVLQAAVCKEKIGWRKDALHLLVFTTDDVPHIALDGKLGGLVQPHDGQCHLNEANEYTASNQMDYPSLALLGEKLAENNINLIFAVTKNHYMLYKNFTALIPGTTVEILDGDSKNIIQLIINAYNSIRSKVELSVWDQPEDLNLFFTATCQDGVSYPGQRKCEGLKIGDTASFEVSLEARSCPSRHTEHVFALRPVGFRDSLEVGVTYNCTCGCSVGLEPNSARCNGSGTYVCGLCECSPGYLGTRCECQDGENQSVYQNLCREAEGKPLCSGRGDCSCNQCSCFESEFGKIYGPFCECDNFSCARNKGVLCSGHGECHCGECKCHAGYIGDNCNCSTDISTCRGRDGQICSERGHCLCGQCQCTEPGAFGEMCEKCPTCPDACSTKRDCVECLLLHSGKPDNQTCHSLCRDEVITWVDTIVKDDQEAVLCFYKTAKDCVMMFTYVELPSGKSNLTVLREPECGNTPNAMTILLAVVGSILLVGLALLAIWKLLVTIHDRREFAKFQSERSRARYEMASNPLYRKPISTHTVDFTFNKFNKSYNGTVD
αvβ3 receptor, sequence (P06756 31-889 limits assumed): as the sequence (P06756 31-889 limits assumed) above
αvβ3 receptor, sequence (P06756 891-1048 partner limits assumed): as the sequence (P06756 891-1048 partner limits assumed) above
αvβ3 receptor, sequence (P05106 27-788): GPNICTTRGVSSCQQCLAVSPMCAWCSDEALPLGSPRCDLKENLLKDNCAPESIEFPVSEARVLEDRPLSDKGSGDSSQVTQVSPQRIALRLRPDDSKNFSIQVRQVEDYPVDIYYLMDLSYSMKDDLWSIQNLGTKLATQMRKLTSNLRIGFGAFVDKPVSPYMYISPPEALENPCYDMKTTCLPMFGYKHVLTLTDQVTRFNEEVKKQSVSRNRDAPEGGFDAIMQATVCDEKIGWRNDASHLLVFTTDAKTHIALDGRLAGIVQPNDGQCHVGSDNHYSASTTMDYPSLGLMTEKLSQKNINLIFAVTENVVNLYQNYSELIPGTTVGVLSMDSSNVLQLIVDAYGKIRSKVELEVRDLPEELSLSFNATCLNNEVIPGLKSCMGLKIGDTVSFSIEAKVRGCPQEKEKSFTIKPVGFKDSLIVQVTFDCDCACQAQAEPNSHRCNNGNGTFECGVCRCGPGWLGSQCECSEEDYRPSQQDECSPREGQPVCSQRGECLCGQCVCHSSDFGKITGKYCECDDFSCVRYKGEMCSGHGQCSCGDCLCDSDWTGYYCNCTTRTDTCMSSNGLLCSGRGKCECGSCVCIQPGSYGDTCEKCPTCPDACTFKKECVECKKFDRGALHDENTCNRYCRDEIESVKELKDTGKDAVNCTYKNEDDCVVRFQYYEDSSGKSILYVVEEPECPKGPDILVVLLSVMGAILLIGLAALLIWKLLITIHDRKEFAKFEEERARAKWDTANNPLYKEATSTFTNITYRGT

Compound | Ki (αvβ3 receptor; [6]) [nM] | IC50 (αvβ3 receptor; [7]) [nM] | IC50 ([1]; human) [nM] | IC50 ([2]; 1 h) [nM] | IC50 ([3]; 1 h) [nM] | Ki (αvβ5 receptors; [8]) [nM] | IC50 (αvβ5 receptors; [9]) [nM] | IC50 ([4]; human) [nM] | IC50 (αvβ3 receptor) [nM] | Ki (αvβ3 receptor) [nM] | stability [5] | IC50 [1, 10] [nM] | IC50 [2, 11] [nM] | IC50 [3, 12] [nM] | IC50 (αvβ5 receptors) [nM] | Ki (αvβ5 receptors) [nM] | IC50 [4, 13] [nM]
CC[C@@]1(O)C(=O)OCc2c1cc1n(c2=O)Cc2c-1nc1ccccc1c2C=NOCCNC(=O)OCc1ccc(NC(=O)[C@H](CCCNC(N)=O)NC(=O)[C@H](C)NC(=O)COCCOCCOCC(=O)NCc2cn(CC(=O)N[C@@H](CCC(=O)NCCOCCOCCOCCC(=O)NCc3ccc(C[C@@H]4NC(=O)[C@@H](Cc5ccc(O)cc5)NC(=O)[C@H](CC(=O)O)NC(=O)CNC(=O)[C@H](CCCNC(=N)N)NC4=O)cc3)C(=O)NCCOCCOCCOCCC(=O)NCc3ccc(C[C@@H]4NC(=O)[C@@H](Cc5ccc(O)cc5)NC(=O)[C@H](CC(=O)O)NC(=O)CNC(=O)[C@H](CCCNC(=N)N)NC4=O)cc3)nn2)cc1 [ST5744TF1] | 2.4 | 3.01 ± 0.11 | 8 ± 0.5 | 450 ± 20 | 390 ± 90 | 2.95 | 3.84 ± 0.12 | 1000 ± 20 |  |  |  |  |  |  |  |  | 
CC[C@@]1(O)C(=O)OCc2c1cc1n(c2=O)Cc2c-1nc1ccccc1c2C=NOCCNC(=O)OCc1ccc(NC(=O)[C@H](CCCCN)NC(=O)[C@H](Cc2ccccc2)NC(=O)COCCOCCOCC(=O)NCc2ccc(C[C@@H]3NC(=O)[C@@H](Cc4ccccc4)NC(=O)[C@H](CC(=O)O)NC(=O)CNC(=O)[C@H](CCCNC(=N)N)NC3=O)cc2)cc1 [ST3280] |  |  |  |  |  |  |  |  | 9.7 ± 0.06 | 8.5 | highly unstable | 8.4 ± 0.6 | 2700 ± 300 | 1800 ± 400 | 34.4 ± 0.8 | 23 | 200 ± 30
CC[C@@]1(O)C(=O)OCc2c1cc1n(c2=O)Cc2c-1nc1ccccc1c2C=NOCCNC(=O)OCc1ccc(NC(=O)[C@H](CCCNC(N)=O)NC(=O)[C@H](C)NC(=O)c2cn(CCOCCOCCOCCC(=O)N[C@@H](CCCNC(N)=O)C(=O)NCCOCCOCCOCCC(=O)NCc3ccc(C[C@@H]4NC(=O)[C@@H](Cc5ccccc5)NC(=O)[C@H](CC(=O)O)NC(=O)CNC(=O)[C@H](CCCNC(=N)N)NC4=O)cc3)nn2)cc1 [ST4215] |  |  |  |  |  |  |  |  |  |  |  | 9 ± 0.7 | 1700 ± 200 | 4600 ± 800 |  |  | 2500 ± 700
CC[C@@]1(O)C(=O)OCc2c1cc1n(c2=O)Cc2c-1nc1ccccc1c2C=NOCCNC(=O)OCc1ccc(NC(=O)[C@H](CCCNC(N)=O)NC(=O)[C@H](C)NC(=O)c2cn(CCOCCOCCOCCC(=O)NCc3ccc(C[C@@H]4NC(=O)[C@@H](Cc5ccccc5)NC(=O)[C@H](CC(=O)O)NC(=O)CNC(=O)[C@H](CCCNC(=N)N)NC4=O)cc3)nn2)cc1 [ST4167] |  |  |  |  |  |  |  |  | 11 ± 0.8 | 8.7 |  | 30 ± 3 | 670 ± 20 | 560 ± 70 | 18.4 ± 0.89 | 13.8 | 1000 ± 100
Echistatin [reference compound] | 0.26 | 0.28 ± 0.08 |  |  |  | 0.33 | 0.29 ± 0.02 |  |  |  |  |  |  |  |  |  | 
